# Measured values: ChEMBL document CHEMBL5465560, “Selectivity Literature for EUbOPEN Chemogenomic Library” (2024)
# What was measured:
# [1] = target: Activin receptor type-1-like (Homo sapiens) (UniProt P37023); conditions: at 10 µM
# [2] = target: Serine/threonine-protein kinase 26 (Homo sapiens, UniProt Q9P289); conditions: at 10 µM
# [3] = target: Mitogen-activated protein kinase kinase kinase 14 (Homo sapiens) (UniProt Q99558); assay: Selectivity interaction (KinomeScan (DiscoverX)) EUB0001049a MAP3K14; conditions: at 1 µM
# [4] = target: Serine/threonine-protein kinase MARK2 (Homo sapiens) (UniProt Q7KZI7); assay: Selectivity interaction (ActivX KiNativ screen (kinase selectivity in THP-1 cell lysates)) EUB0000639a MARK2; type: subcellular; conditions: lysate, at 0.2 µM
# [5] = target: Mitogen-activated protein kinase 1 (Homo sapiens, UniProt P28482); conditions: at 10 µM
# [6] = target: T1, NUAK family SNF1-like kinase 2 (Homo sapiens) (UniProt Q9H093); assay: Selectivity interaction (KinomeScan (DiscoverX)) EUB0001619a NUAK2; conditions: at 1 µM
# T1 sequence (whole entry): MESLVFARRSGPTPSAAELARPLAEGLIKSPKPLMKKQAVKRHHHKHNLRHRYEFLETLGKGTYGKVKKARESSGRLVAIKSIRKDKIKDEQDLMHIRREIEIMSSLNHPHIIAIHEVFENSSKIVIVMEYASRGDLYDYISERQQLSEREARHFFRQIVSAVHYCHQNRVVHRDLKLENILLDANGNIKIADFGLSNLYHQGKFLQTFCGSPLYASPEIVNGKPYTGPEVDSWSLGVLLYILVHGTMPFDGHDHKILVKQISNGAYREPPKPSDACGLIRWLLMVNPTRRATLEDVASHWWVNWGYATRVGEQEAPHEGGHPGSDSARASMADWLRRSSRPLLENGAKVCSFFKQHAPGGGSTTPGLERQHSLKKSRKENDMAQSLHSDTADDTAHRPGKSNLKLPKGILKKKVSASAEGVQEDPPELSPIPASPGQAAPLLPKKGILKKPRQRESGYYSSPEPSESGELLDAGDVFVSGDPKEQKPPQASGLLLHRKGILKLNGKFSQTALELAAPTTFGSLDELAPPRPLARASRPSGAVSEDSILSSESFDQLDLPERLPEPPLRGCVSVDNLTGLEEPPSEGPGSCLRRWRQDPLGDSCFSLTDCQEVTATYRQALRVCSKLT
# [7] = target: T2, Rhodopsin kinase GRK1 (Homo sapiens) (UniProt Q15835); assay: Selectivity interaction (KinomeScan (DiscoverX)) EUB0000607a GRK1; conditions: at 10 µM
# T2 sequence (whole entry): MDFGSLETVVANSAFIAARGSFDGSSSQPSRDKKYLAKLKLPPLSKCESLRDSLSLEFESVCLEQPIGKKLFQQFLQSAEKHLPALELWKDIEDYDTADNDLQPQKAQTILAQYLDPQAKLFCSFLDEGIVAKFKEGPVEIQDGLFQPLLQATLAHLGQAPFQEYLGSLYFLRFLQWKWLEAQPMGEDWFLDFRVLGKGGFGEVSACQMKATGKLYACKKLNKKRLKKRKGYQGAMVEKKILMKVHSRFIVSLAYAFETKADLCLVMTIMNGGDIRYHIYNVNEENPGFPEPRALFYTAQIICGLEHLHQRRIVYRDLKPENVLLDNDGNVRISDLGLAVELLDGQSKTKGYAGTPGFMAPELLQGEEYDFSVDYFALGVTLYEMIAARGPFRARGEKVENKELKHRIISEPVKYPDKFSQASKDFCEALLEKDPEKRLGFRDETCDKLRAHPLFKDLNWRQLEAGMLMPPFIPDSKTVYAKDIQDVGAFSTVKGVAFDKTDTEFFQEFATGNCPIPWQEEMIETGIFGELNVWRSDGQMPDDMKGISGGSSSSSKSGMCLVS
# [8] = target: Receptor-interacting serine/threonine-protein kinase 3 (Homo sapiens) (UniProt Q9Y572); assay: Selectivity interaction (Kinase panel (KiNativ target engagement assay in Jurkat cells)) EUB0001635a RIPK3; type: cell-based; conditions: Selectivity number of off-targets 0.0, Selectivity number of targets 233.0, Source Knowledge https://www.sciencedirect.com/science/article/pii/S2451945619300674?via%3Dihub, at 1 µM
# [9] = target: Polycomb protein SUZ12 (Homo sapiens) (UniProt Q15022); assay: Selectivity interaction (Methyltransferase screen (Scintillation proximity assays)) EUB0000255b SUZ12
# [10] = target: Mitogen-activated protein kinase kinase kinase kinase 1 (Homo sapiens) (UniProt Q92918); assay: Selectivity interaction (KinomeScan (DiscoverX)) EUB0000666a MAP4K1; conditions: at 10 µM
# [11] = target: T3, Serine/threonine-protein kinase ULK1 (Homo sapiens) (UniProt O75385); assay: Selectivity interaction (Kinase panel (DSF assay)) EUB0001558a ULK1
# T3 sequence (whole entry): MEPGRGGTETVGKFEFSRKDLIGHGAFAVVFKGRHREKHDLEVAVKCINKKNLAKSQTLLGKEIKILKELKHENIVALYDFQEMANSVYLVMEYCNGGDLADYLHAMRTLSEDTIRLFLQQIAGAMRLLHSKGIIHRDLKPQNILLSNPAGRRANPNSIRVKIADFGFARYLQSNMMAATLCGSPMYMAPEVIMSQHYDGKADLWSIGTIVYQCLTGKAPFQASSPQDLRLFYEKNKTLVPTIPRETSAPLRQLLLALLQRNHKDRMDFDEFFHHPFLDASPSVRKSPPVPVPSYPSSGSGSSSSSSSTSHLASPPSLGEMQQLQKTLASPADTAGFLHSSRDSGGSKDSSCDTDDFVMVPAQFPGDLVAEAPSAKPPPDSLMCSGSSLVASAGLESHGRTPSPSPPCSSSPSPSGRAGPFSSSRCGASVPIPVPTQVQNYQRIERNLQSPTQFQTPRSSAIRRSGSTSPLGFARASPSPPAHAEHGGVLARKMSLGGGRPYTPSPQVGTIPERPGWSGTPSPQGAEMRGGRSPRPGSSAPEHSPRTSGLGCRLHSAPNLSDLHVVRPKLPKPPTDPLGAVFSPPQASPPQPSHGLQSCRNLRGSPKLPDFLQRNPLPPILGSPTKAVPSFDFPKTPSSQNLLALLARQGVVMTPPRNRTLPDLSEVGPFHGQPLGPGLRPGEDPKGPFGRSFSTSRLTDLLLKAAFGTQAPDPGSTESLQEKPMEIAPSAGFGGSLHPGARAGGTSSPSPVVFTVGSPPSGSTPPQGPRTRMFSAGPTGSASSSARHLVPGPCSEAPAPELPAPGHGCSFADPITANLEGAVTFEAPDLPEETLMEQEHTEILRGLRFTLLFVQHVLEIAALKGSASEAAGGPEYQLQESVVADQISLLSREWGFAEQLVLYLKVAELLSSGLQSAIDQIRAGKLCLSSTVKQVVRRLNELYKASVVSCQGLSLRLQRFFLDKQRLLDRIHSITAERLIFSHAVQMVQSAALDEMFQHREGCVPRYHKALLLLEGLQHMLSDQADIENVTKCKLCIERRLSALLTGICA
# Chain of Polycomb protein SUZ12 (Homo sapiens) (Q15022 whole entry): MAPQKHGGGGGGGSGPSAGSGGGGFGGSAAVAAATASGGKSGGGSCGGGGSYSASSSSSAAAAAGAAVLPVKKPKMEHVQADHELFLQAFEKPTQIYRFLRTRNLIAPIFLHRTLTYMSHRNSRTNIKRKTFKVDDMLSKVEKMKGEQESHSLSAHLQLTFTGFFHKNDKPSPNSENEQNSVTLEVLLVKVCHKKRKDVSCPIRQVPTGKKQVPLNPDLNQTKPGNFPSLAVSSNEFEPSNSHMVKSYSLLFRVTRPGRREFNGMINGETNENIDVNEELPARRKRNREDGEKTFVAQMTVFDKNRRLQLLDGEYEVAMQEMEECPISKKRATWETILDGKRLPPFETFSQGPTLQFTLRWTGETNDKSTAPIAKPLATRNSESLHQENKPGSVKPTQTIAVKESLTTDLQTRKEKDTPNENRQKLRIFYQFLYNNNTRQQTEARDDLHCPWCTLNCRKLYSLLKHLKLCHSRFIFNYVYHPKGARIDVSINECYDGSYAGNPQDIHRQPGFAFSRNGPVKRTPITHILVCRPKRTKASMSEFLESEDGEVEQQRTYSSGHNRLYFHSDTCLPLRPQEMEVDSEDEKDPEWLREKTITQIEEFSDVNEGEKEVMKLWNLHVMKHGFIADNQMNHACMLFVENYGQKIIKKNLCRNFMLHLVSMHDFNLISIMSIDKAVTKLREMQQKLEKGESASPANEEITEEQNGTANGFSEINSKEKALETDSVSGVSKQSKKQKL
# Chain of Mitogen-activated protein kinase kinase kinase 14 (Homo sapiens) (Q99558 whole entry, looked up): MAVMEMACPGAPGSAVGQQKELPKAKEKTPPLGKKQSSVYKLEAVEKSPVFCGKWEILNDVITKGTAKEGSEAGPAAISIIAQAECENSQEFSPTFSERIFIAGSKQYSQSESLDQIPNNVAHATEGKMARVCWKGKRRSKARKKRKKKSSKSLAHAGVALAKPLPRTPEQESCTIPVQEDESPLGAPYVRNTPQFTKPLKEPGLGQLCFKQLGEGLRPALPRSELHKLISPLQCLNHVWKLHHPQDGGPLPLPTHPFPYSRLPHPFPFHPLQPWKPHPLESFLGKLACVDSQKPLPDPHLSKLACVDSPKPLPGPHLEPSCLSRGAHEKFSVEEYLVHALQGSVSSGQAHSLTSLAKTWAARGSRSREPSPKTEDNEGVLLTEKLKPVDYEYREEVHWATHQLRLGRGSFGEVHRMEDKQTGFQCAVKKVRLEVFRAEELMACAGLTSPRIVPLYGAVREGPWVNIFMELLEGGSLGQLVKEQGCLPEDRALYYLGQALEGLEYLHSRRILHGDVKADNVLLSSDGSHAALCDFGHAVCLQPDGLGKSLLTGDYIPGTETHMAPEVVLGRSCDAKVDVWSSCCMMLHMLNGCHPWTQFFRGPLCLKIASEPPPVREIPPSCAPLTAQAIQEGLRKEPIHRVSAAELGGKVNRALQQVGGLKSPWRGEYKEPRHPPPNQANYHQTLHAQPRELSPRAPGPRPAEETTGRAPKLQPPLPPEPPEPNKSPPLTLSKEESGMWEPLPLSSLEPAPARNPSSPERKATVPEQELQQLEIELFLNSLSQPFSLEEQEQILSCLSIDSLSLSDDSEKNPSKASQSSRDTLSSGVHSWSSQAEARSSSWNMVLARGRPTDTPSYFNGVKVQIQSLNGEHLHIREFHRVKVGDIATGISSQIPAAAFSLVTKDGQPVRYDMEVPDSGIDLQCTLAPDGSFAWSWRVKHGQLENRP
# Chain of Serine/threonine-protein kinase MARK2 (Homo sapiens) (Q7KZI7 whole entry): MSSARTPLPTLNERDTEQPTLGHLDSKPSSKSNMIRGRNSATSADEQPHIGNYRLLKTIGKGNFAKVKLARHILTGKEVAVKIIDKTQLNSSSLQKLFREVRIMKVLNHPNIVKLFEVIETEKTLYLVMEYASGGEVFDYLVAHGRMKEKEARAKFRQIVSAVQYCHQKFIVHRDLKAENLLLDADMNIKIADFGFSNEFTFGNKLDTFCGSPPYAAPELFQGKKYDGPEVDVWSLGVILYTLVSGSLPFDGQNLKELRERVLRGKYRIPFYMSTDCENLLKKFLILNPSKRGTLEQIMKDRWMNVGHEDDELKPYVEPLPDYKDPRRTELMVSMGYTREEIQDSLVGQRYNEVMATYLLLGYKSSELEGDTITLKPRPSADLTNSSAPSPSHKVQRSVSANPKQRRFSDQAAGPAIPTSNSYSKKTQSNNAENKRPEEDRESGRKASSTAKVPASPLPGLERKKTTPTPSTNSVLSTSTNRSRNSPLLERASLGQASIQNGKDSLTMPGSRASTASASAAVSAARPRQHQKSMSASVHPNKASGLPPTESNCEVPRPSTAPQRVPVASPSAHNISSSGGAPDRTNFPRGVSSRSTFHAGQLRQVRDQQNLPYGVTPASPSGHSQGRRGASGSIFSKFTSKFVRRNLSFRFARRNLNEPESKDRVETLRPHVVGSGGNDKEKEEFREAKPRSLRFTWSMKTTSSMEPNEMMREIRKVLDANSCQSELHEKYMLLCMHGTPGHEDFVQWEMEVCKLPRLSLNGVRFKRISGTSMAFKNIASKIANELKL
# Chain of Receptor-interacting serine/threonine-protein kinase 3 (Homo sapiens) (Q9Y572 whole entry, looked up): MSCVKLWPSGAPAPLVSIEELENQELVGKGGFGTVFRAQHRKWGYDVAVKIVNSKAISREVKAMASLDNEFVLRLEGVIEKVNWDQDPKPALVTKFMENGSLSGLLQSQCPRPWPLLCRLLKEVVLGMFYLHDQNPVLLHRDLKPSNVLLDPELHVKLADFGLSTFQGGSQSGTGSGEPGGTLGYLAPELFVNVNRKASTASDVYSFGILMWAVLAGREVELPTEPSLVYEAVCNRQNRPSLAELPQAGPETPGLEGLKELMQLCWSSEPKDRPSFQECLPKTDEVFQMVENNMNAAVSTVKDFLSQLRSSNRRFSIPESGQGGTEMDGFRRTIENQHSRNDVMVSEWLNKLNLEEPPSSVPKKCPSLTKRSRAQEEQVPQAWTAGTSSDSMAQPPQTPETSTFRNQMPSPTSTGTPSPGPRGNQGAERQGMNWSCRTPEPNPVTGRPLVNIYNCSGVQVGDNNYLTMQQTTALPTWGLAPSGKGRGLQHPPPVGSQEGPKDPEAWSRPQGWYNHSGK
# Chain of Activin receptor type-1-like (Homo sapiens) (P37023 whole entry): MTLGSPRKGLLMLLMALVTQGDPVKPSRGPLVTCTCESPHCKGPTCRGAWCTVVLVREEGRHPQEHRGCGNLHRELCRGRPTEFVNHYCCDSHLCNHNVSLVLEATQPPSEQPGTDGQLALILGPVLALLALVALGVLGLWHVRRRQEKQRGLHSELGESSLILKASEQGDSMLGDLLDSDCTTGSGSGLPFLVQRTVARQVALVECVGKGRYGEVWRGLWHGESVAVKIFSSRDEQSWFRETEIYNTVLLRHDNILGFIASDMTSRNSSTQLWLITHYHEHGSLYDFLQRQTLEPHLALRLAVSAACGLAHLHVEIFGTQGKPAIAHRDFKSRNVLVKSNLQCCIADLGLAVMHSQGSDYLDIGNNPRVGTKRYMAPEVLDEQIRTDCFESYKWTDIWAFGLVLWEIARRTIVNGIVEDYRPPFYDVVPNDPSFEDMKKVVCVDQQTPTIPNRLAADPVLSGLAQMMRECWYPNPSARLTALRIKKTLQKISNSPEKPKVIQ
# Chain of Mitogen-activated protein kinase kinase kinase kinase 1 (Homo sapiens) (Q92918 whole entry, looked up): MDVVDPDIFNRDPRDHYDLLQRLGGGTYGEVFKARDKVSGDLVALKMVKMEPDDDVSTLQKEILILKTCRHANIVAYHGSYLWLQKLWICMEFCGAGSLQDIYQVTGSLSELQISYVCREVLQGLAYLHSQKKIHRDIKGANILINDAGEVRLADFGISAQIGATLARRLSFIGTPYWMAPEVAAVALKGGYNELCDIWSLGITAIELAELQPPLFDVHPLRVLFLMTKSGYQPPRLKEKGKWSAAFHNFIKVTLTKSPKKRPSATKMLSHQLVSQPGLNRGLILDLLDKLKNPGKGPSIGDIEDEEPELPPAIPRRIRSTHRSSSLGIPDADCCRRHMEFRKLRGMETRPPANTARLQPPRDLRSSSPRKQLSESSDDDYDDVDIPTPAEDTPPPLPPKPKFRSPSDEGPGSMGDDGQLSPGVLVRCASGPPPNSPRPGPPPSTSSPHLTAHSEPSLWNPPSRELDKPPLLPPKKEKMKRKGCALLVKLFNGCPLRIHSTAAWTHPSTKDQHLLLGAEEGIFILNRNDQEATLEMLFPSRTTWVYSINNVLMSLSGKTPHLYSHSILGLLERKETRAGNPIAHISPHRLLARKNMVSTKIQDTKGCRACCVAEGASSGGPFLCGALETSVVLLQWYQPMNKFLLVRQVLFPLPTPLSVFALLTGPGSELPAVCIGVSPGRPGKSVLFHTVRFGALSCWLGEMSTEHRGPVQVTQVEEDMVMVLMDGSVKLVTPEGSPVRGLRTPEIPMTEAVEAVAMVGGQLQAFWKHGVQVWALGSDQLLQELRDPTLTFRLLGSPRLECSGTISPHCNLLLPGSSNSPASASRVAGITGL
# Chain of Serine/threonine-protein kinase 26 (Q9P289 2-416 limits assumed): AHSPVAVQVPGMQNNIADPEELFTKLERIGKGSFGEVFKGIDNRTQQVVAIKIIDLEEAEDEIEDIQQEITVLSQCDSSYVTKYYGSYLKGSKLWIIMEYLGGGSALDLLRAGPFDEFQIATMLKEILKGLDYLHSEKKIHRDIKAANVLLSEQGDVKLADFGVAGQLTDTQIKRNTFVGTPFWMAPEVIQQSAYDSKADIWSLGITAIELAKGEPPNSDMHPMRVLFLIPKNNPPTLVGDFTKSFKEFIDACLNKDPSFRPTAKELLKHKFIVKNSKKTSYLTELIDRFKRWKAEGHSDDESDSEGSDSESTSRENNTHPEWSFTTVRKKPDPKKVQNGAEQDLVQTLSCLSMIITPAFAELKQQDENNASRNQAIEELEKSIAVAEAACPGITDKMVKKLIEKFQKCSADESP
compound,measurement,setting,value
Cc1cc([C@@H](C)Nc2ccccc2C(=O)O)c2nc(N3CCOCC3)cc(=O)n2c1 [AZD-6482],% of control,[1],89%
same,% of control,[2],100%
COc1cc(Nc2nc(C)cc(-c3cnn4nc(OC)ccc34)n2)cc(C(F)(F)F)c1,% of control,[3],98%
CC[C@@H]1[C@H](F)C(=O)N[C@@H]1COc1nccc2cc(C(N)=O)c(OC)cc12 [ZIMLOVISERTIB],% of inhibition,[4],4.2%
CCN(CC)CCCCNc1ncc2cc(-c3cc(OC)cc(OC)c3)c(NC(=O)NC(C)(C)C)nc2n1,% of control,[5],100%
N#Cc1cccc(-c2c[nH]c3ncnc(N4CCOCC4)c23)c1,% of control,[6],18%
CNC(=O)Nc1ccc(-c2nc(N3CC4CCC(C3)O4)c3cnn(C4CCC5(CC4)OCCO5)c3n2)cc1,% of control,[7],100%
C=CC(=O)Nc1ccc(C(=O)Nc2[nH]nc3c2CN(C(=O)N[C@H](CN(C)C)c2ccccc2)C3(C)C)cc1,% of engagement,[8],-0.8%
COCCN1CCC(c2cc(CN(C)C(=O)c3cccc(Oc4ccccc4)c3)ccn2)CC1,% activity,[9]; at 1 µM,> 95%
same,% activity,[9]; at 10 µM,> 90%
O=C(NOC[C@H](O)CO)c1ccc(F)c(F)c1Nc1ccc(I)cc1F,% of control,[10],77%
CC(C)(O)[C@H](F)CN1Cc2cc(NC(=O)c3cnn4cccnc34)c(N3CCOCC3)cc2C1=O,dTM,[11],0.5 K
